Laboratory results published in article PMC12628652, “A Validated UPLC‐MS/MS Method for Monitoring Temozolomide and Perillyl Alcohol Metabolites in Biological Matrices: Insights From a Preclinical Pharmacokinetic Study” (Biomedical Chromatography, 2025).
Blank lines part the entries; values can stand above or below the compound they belong to.

Assays:
[1] = Stability of analytes in rat plasma and tissue matrices (freeze-thaw, bench-top, autosampler); format: physicochemical; conditions: for Stability (ER %) Autosampler: 10°C for 24 h; for Stability (ER %) Bench-top: room temperature for 6 h; for Stability (ER %) Freeze/thaw: three freeze–thaw cycles over 24-h intervals
Method: QC samples were prepared by spiking blank rat plasma with PA, AIC, and TMZ at three concentration levels: 30, 80, and 200 ng/mL. Internal standards (IS1 and IS2) were added to each sample at a final concentration of 100 ng/mL. Whole blood was obtained from untreated anesthetized rats that were euthanized as part of the study protocol. Blood samples were collected into heparinized tubes and centrifuged at 3500 rpm for 10 min at 20°C to separate plasma. Organs including the brain, lungs, kidneys, spleen, and liver were promptly excised and homogenized using a Marconi mechanical tissue homogenizer (5 mm probe) in phosphate‐buffered saline (PBS, pH 7.4) at a 1:5 (w/v) tissue‐to‐buffer ratio.
For each matrix sample, 50 μL of homogenate or plasma was mixed with 50 μL of internal standard (IS) solution (100 ng/mL), followed by the addition of the respective working solution to reach the target analyte concentration. The volume was adjusted to 1 mL using an appropriate solvent mixture. Samples were centrifuged again at 3500 rpm for 10 min at 4°C. The resulting supernatants were filtered through 0.22 μm membrane filters prior to chromatographic analysis. All calibration standards and QC samples were prepared freshly on the day of analysis to minimize analyte degradation.
The stability of PA, AIC, and TMZ in rat plasma was assessed under the following conditions using low, medium, and high QC levels: (1) Freeze–thaw stability: Three freeze–thaw cycles over 24‐h intervals; (2) Bench‐top stability: Storage at room temperature for 6 h; (3) Autosampler stability: Storage at 10°C for 24 h. Analytes were considered stable if the relative error (RE%) remained within ±15% (Tiwari and Tiwari [2010]).

[2] = set-up: method as in Ostermann et al. [2004]; conditions: ref Ostermann et al. [2004]; cited from earlier work
[3] = rat brain homogenate, 200 ng/mL
[4] = rat kidney homogenate, 30 ng/mL
[5] = rat kidney homogenate, 80 ng/mL
[6] = rat kidney homogenate, 200 ng/mL
[7] = rat liver homogenate, 200 ng/mL
[8] = rat spleen homogenate, 30 ng/mL
[9] = rat spleen homogenate, 80 ng/mL
[10] = rat spleen homogenate, 200 ng/mL

- Stability (ER %) Autosampler ([1]; rat brain homogenate, 30 ng/mL): 1.65%
- Stability (ER %) Bench-top ([1]; rat brain homogenate, 30 ng/mL): 1.48%
- Stability (ER %) Freeze/thaw ([1]; rat brain homogenate, 30 ng/mL): 9.76%
- Stability (ER %) Autosampler ([1]; rat brain homogenate, 80 ng/mL): 1.89%
- Stability (ER %) Bench-top ([1]; rat brain homogenate, 80 ng/mL): 7.73%
- Stability (ER %) Freeze/thaw ([1]; rat brain homogenate, 80 ng/mL): 0.84%
- Stability (ER %) Autosampler [1, 3]: 4.29%
- Stability (ER %) Bench-top [1, 3]: 2.32%
- Stability (ER %) Freeze/thaw [1, 3]: 4.42%
- Stability (ER %) Autosampler [1, 4]: 1.41%
- Stability (ER %) Bench-top [1, 4]: 1.99%
- Stability (ER %) Freeze/thaw [1, 4]: 3.69%
- Stability (ER %) Autosampler [1, 5]: 3.14%
- Stability (ER %) Bench-top [1, 5]: 8.22%
- Stability (ER %) Freeze/thaw [1, 5]: 9.44%
- Stability (ER %) Autosampler [1, 6]: 4.92%
- Stability (ER %) Bench-top [1, 6]: 3.77%
- Stability (ER %) Freeze/thaw [1, 6]: 4.52%
- Stability (ER %) Autosampler ([1]; rat liver homogenate, 30 ng/mL): 3.82%
- Stability (ER %) Bench-top ([1]; rat liver homogenate, 30 ng/mL): 1.49%
- Stability (ER %) Freeze/thaw ([1]; rat liver homogenate, 30 ng/mL): 5.67%
- Stability (ER %) Autosampler ([1]; rat liver homogenate, 80 ng/mL): 4.07%
- Stability (ER %) Bench-top ([1]; rat liver homogenate, 80 ng/mL): 6.41%
- Stability (ER %) Freeze/thaw ([1]; rat liver homogenate, 80 ng/mL): 8.17%
- Stability (ER %) Autosampler [1, 7]: 3.33%
- Stability (ER %) Bench-top [1, 7]: 1.57%
- Stability (ER %) Freeze/thaw [1, 7]: 1.54%
- Stability (ER %) Autosampler ([1]; rat lung homogenate, 30 ng/mL): 4.82%
- Stability (ER %) Bench-top ([1]; rat lung homogenate, 30 ng/mL): 7.99%
- Stability (ER %) Freeze/thaw ([1]; rat lung homogenate, 30 ng/mL): 6.24%
- Stability (ER %) Autosampler ([1]; rat lung homogenate, 80 ng/mL): 3.02%
- Stability (ER %) Bench-top ([1]; rat lung homogenate, 80 ng/mL): 9.32%
- Stability (ER %) Freeze/thaw ([1]; rat lung homogenate, 80 ng/mL): 7.19%
- Stability (ER %) Autosampler ([1]; rat lung homogenate, 200 ng/mL): 2.51%
- Stability (ER %) Bench-top ([1]; rat lung homogenate, 200 ng/mL): 5.54%
- Stability (ER %) Freeze/thaw ([1]; rat lung homogenate, 200 ng/mL): 1.34%
- Stability (ER %) Autosampler ([1]; rat plasma, 30 ng/mL): 12.84%
- Stability (ER %) Bench-top ([1]; rat plasma, 30 ng/mL): 1.39%
- Stability (ER %) Freeze/thaw ([1]; rat plasma, 30 ng/mL): 3.94%
- Stability (ER %) Autosampler ([1]; rat plasma, 80 ng/mL): 5.39%
- Stability (ER %) Bench-top ([1]; rat plasma, 80 ng/mL): 3.94%
- Stability (ER %) Freeze/thaw ([1]; rat plasma, 80 ng/mL): 4.29%
- Stability (ER %) Autosampler ([1]; rat plasma, 200 ng/mL): 13.24%
- Stability (ER %) Bench-top ([1]; rat plasma, 200 ng/mL): 1.94%
- Stability (ER %) Freeze/thaw ([1]; rat plasma, 200 ng/mL): 9.83%
- Stability (ER %) Autosampler [1, 8]: 2.64%
- Stability (ER %) Bench-top [1, 8]: 6.41%
- Stability (ER %) Freeze/thaw [1, 8]: 5.86%
- Stability (ER %) Autosampler [1, 9]: 2.61%
- Stability (ER %) Bench-top [1, 9]: 1.35%
- Stability (ER %) Freeze/thaw [1, 9]: 1.35%
- Stability (ER %) Autosampler [1, 10]: 2.22%
- Stability (ER %) Bench-top [1, 10]: 1.05%
- Stability (ER %) Freeze/thaw [1, 10]: 3.86%
Compound: Cn1nnc2c(C(N)=O)ncn2c1=O [TMZ, Temozolomide]
- share of the plasma concentration reaching brain tissues [2]: ~ 20%

- Stability (ER %) Autosampler ([1]; rat brain homogenate, 30 ng/mL): 2.04%
- Stability (ER %) Bench-top ([1]; rat brain homogenate, 30 ng/mL): 7.13%
- Stability (ER %) Freeze/thaw ([1]; rat brain homogenate, 30 ng/mL): 8.55%
- Stability (ER %) Autosampler ([1]; rat brain homogenate, 80 ng/mL): 4.29%
- Stability (ER %) Bench-top ([1]; rat brain homogenate, 80 ng/mL): 8.22%
- Stability (ER %) Freeze/thaw ([1]; rat brain homogenate, 80 ng/mL): 1.79%
- Stability (ER %) Autosampler [1, 3]: 4.57%
- Stability (ER %) Bench-top [1, 3]: 9.26%
- Stability (ER %) Freeze/thaw [1, 3]: 6.76%
- Stability (ER %) Autosampler [1, 4]: 4.28%
- Stability (ER %) Bench-top [1, 4]: 2.11%
- Stability (ER %) Freeze/thaw [1, 4]: 1.29%
- Stability (ER %) Autosampler [1, 5]: 5.42%
- Stability (ER %) Bench-top [1, 5]: 8.94%
- Stability (ER %) Freeze/thaw [1, 5]: 8.45%
- Stability (ER %) Autosampler [1, 6]: 5.94%
- Stability (ER %) Bench-top [1, 6]: 8.76%
- Stability (ER %) Freeze/thaw [1, 6]: 6.46%
- Stability (ER %) Autosampler ([1]; rat liver homogenate, 30 ng/mL): 4.35%
- Stability (ER %) Bench-top ([1]; rat liver homogenate, 30 ng/mL): 9.13%
- Stability (ER %) Freeze/thaw ([1]; rat liver homogenate, 30 ng/mL): 1.67%
- Stability (ER %) Autosampler ([1]; rat liver homogenate, 80 ng/mL): 1.74%
- Stability (ER %) Bench-top ([1]; rat liver homogenate, 80 ng/mL): 3.28%
- Stability (ER %) Freeze/thaw ([1]; rat liver homogenate, 80 ng/mL): 9.53%
- Stability (ER %) Autosampler [1, 7]: 2.34%
- Stability (ER %) Bench-top [1, 7]: 8.71%
- Stability (ER %) Freeze/thaw [1, 7]: 7.67%
- Stability (ER %) Autosampler ([1]; rat lung homogenate, 30 ng/mL): 2.22%
- Stability (ER %) Bench-top ([1]; rat lung homogenate, 30 ng/mL): 7.93%
- Stability (ER %) Freeze/thaw ([1]; rat lung homogenate, 30 ng/mL): 5.74%
- Stability (ER %) Autosampler ([1]; rat lung homogenate, 80 ng/mL): 2.84%
- Stability (ER %) Bench-top ([1]; rat lung homogenate, 80 ng/mL): 8.37%
- Stability (ER %) Freeze/thaw ([1]; rat lung homogenate, 80 ng/mL): 1.04%
- Stability (ER %) Autosampler ([1]; rat lung homogenate, 200 ng/mL): 3.33%
- Stability (ER %) Bench-top ([1]; rat lung homogenate, 200 ng/mL): 8.49%
- Stability (ER %) Freeze/thaw ([1]; rat lung homogenate, 200 ng/mL): 6.67%
- Stability (ER %) Autosampler ([1]; rat plasma, 30 ng/mL): 12.36%
- Stability (ER %) Bench-top ([1]; rat plasma, 30 ng/mL): 6.77%
- Stability (ER %) Freeze/thaw ([1]; rat plasma, 30 ng/mL): 10.24%
- Stability (ER %) Autosampler ([1]; rat plasma, 80 ng/mL): 13.46%
- Stability (ER %) Bench-top ([1]; rat plasma, 80 ng/mL): 10.93%
- Stability (ER %) Freeze/thaw ([1]; rat plasma, 80 ng/mL): 5.34%
- Stability (ER %) Autosampler ([1]; rat plasma, 200 ng/mL): 3.48%
- Stability (ER %) Bench-top ([1]; rat plasma, 200 ng/mL): 9.03%
- Stability (ER %) Freeze/thaw ([1]; rat plasma, 200 ng/mL): 1.04%
- Stability (ER %) Autosampler [1, 8]: 4.01%
- Stability (ER %) Bench-top [1, 8]: 1.42%
- Stability (ER %) Freeze/thaw [1, 8]: 8.36%
- Stability (ER %) Autosampler [1, 9]: 4.98%
- Stability (ER %) Bench-top [1, 9]: 3.74%
- Stability (ER %) Freeze/thaw [1, 9]: 4.43%
- Stability (ER %) Autosampler [1, 10]: 3.13%
- Stability (ER %) Bench-top [1, 10]: 1.52%
- Stability (ER %) Freeze/thaw [1, 10]: 1.32%
Compound: NC(=O)c1[nH]cnc1N [AIC, 5‐aminoimidazole‐4‐carboxamide]
